Reference: patent US12338456B2, “Method for increasing the specific production rate of eukaryotic cells” (Hoffmann-La Roche Inc., priority 2014, dated 2025)
“Also recorded” adds a separate entry of the source.

Columns and labels:
[1] = test system: recombinant CHO-K1 cell line, called clone 1, expressing a humanized monoclonal antibody; experiment: CHO fed-batch cultivation with para-, ortho- or meta-Tyr supplementation under Phe limitation conditions; type: cell-based, Chinese Hamster
Experimental: (§1) For all cell culture experiments a recombinant CHO-K1 cell line, called clone 1, expressing a humanized monoclonal antibody was used. The recombinant CHO-K1 cell line was generated using an L-methionine sulfoximine sensitive CHO-K1 host cell line (Lonza, Cologne, Germany). The cells were cultivated in protein free, chemically defined CD-CHO medium (Life Technologies, Darmstadt, Germany) supplemented with 50 μM L-methionine sulfoximine (Sigma Aldrich, Munich, Germany) during seed train cultivation. Seed train cultivation was performed in shake flasks using a humidified incubator, 7% CO2, and 37° C. setting. The cells were splitted every three to four days for subcultivation and culture expansion. For all experiments, cells with identical age in culture (appr. 21 generations) until start of the experiment were used.
(§2) All supplementation experiments were performed using shake flask cultivation systems, chemically defined CD-CHO medium without the selection pressure L-methionine sulfoximine and two appropriate serial continuous applied feeds (feed 1 and feed 2). Recombinant CHO-K1 cells producing a humanized monoclonal antibody were inoculated with 3×10^5 viable cells/mL and cultured for 14 days. CD-CHO base medium was sterile supplemented before inoculation with 0.1 mM, 0.3 mM or 0.4 mM of either ortho-Tyr, meta-Tyr or para-Tyr. Control cultivation with no supplementation of ortho-Tyr, meta-Tyr or para-Tyr was used as reference. Phenylalanine (Phe) non-limitation conditions were realized by increasing concentration of Phe in feed 2.
(§3) For analysis of viable and total cell densities an automated Cedex HiRes system (Roche Diagnostics, Mannheim, Germany) was used. Discrimination of viable and total cell densities were evaluated using the trypan blue exclusion staining method and analyzing more than 10 pictures per sample and day according to the manufacturer's specifications. Viable cell density (VCD) and cell viability were calculated as described in equation 1 (Equ 1) and equation 2 (Equ 2), respectively. Viable cell density=NTrypan blue negative×(10^5 viable cells/ml) (Equ 1) Cell viability=NTrypan blue negative/(NTrypan blue negative+NTrypan blue positive cells)×100% (Equ 2)
(§4) As indicator for overall biomass generation in the process a cumulative cell time integral (CTI) was calculated as followed (Equ 3). Cell time integral=Σ(0.5×(VCDn−1+VCDn)×(tn−tn−1))×(10^5 viable cells×d/ml) (Equ 3)
Lactate dehydrogenase (LDH) activity in the cell-free supernatant was analyzed using a Cobas Integra 400 plus system (Roche Diagnostics, Mannheim, Germany).
(§5) Product titer war either quantified by a Cobas Integra 400 plus system (Roche, Mannheim, Germany) according to the manufacture's protocol or by PorosA HPLC method as described previously (Zeck et al. 2012). The overall specific productivity qP was calculated for the analysis of cell production capacity according to equation 4. qP=(Titern−Titern−1)/(CTIn−CTIn−1)×(pg/(viable cell×d)) (Equ 4) Determination of Peptide Sequence Variants and Identification of Meta- and Ortho-Tyr Sequence Variants with Synthetic Peptides
In concentration screens, a 50% reduction of the […] reduction capacity of CHO cells was observed when supplemented with 0.5 mM meta-Tyr (Gurer-Orhan et al., (2006)). No data or concentration have been reported for ortho-Tyr supplementation in cell cultures to date. Using a dose-dependent cultivation approach, it was aimed to determine the relevance and tolerable concentrations of meta-Tyr and ortho-Tyr on CHO cell growth performance. For this, a CHO cultivation model described in material and methods was supplemented with either 0.1 mM, 0.3 mM or 0.4 mM para-Tyr, ortho-Tyr or meta-Tyr. We used the standard cultivation process with no supplementation as reference, following so-called “control” or “positive control”. Here, Phe will go into limitation by day 10/11.

CHO cells = conditions: cited from earlier work
[2] = test system: recombinant CHO-K1 cell line, called clone 1, expressing a humanized monoclonal antibody; experiment: CHO fed-batch cultivation with para-, ortho- or meta-Tyr supplementation under Phe non-limitation conditions; type: cell-based, Chinese Hamster
Experimental: as §1, §2, §3, §4, §5
In a second approach, the role of meta- and ortho-Tyr supplementation under Phe non-limitation conditions in CHO fed-batch cultivations was analyzed. For that, the amount of Phe in feed 2 was increased to prevent Phe limitation (FIG. 6).

[3] = 0.1 mM, 0.3 mM or 0.4 mM supplementation

## N[C@@H](Cc1cccc(O)c1)C(=O)O [meta-Tyr, meta-tyrosine]
[1]
  product concentration (overall productivity, product yield): does not alter product yield
  specific productivity qP (cell-specific product formation rate): overall higher specific productivity qP
[1]; 0.1 mM supplementation
  increase of qP compared to control: +5%
[1]; [3]
  cumulative CTI (cell time integral, overall biomass production): decreased cumulative CTI
  maximal VCD versus other cultures: dose dependent reduced maximal VCD
[1]; 0.3 mM supplementation
  increase of qP compared to control: +26%
[1]; 0.4 mM supplementation
  increase of qP compared to control: +36%
[1]; fed-batch CHO cultivation
  impact on cell viability: no significant impact
[1]; listed as Meta-Tyr
  specific productivity qP (cell-specific product formation rate): increases cell-specific product formation rate qP
CHO cells; 0.5 mM meta-Tyr
  reduction of the MTX reduction capacity of CHO cells: 50%
CHO cells; meta-Tyr supplementation of CHO cells
  cell cytotoxicity: dose-dependent cell cytotoxicity
[2]
  product titer (product yield): does not alter product yield
  specific productivity qP (cell-specific product formation rate): overall higher specific productivity qP; also recorded: increases cell-specific product formation rate qP
[2]; 0.1 mM supplementation
  increase of qP compared to control: +3%
[2]; [3]
  CTI versus other cultures: dose dependent reduction in CTI
[2]; 0.3 mM supplementation
  increase of qP compared to control: +26%
[2]; 0.4 mM supplementation
  increase of qP compared to control: +28%

## NC(Cc1ccccc1O)C(=O)O (stereo not drawn) [ortho-Tyr, ortho-tyrosine, reference compound]
[1]
  product concentration (overall productivity, product yield): does not alter product yield
[1]; compared to control, meta-Tyr and para-Tyr supplementation
  final LDH activity in the supernatant: higher final LDH activity in the supernatant
[1]; day 14
  cell viability: less than 60%
[2]
  product titer (product yield): does not alter product yield
